Results taken from patent publication US20260248783A1 (ASCLETIS BIOSCIENCE CO., LTD., priority 2021, published 2026).
Counter-ions that a name gives are not always drawn.

Biological target: T1, PD-1/PD-L1 (Homo sapiens, UniProt Q9NZQ7)
T1 construct: Recombinant human PD-L1 protein (19-238) with a Histag at the C-terminus; purchased AcroBiosystems PD1-H5229 (PD-L1); PD1-H5257 (PD-1)
Experiment: PD-1/PD-L1 Homogeneous Time-Resolved Fluorescence (HTRF) Binding Assay
Details: PD-1/PD-L1 HTRF activity; 3 nM PD1, 10 nM PD-L1, 25° C.
Method: Example 107. PD-1/PD-L1 Homogeneous Time-Resolved Fluorescence (HTRF) Binding Assay
The assays were conducted in a standard black 384-well polystyrene plate with a final volume of 20 μL. Inhibitors were first serially diluted in DMSO and then added to the plate wells before the addition of other reaction components. The final concentration of DMSO in the assay was 1%. The assays were carried out at 25° C. in the PBS buffer (pH 7.4) with 0.05% Tween-20 and 0.1% BSA. Recombinant human PD-L1 protein (19-238) with a Histag at the C-terminus was purchased from AcroBiosystems (PD1-H5229). Recombinant human PD-1 protein (25-167) with Fe tag at the C-terminus was also purchased from AcroBiosystems (PD1-H5257). PD-L1 and PD-1 proteins were diluted in the assay buffer and 10 μL was added to the plate well. Plates were centrifuged and proteins were preincubated with inhibitors for 40 minutes. The incubation was followed by the addition of 10 μL of HTRF detection buffer supplemented with Europium cryptate-labeled anti-human IgG (PerkinElmer-AD0212) specific for Fe and anti-His antibody conjugated to SureLight®—Allophycocyanin (APC, PerkinElmer-AD0059H). After centrifugation, the plate was incubated at 25° C. for 60 min. before reading on a PHERAstar FS plate reader (665 nm/620 nm ratio). Final concentrations in the assay were […], 10 nM PD-L1, 1 nM europium anti-human IgG and 20 nM anti-His-Allophycocyanin. IC50 determination was performed by fitting the curve of percent control activity versus the log of the inhibitor concentration.

T1 sequence (Q9NZQ7 19-238): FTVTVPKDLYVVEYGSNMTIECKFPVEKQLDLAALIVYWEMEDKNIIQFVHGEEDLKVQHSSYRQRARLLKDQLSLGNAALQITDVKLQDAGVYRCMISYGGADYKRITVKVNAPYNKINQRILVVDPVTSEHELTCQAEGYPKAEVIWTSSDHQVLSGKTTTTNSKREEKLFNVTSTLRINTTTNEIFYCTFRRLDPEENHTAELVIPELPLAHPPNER

| IC50 [µM] | Compound |
| --- | --- |
| 0.01 to 0.1 | CC(=O)NC[C@H](NCCn1c(C)cn2nc(-c3cccc(-c4cccc(-c5cc6c(=O)n(CCN[C@@H](CNC(C)=O)C(=O)O)c(C)cn6n5)c4Cl)c3Cl)cc2c1=O)C(=O)O [Compound 68, (2S,2'S)-2,2′-((((2,2′-dichloro-[1,1′-biphenyl]-3,3′-diyl)bis(6-methyl-4-oxopyrazolo[1,5-a]pyrazine-2,5(4H)-diyl))bis(ethane-2,1-diyl))bis(azanediyl))bis(3-acetamidopropanoic acid)] |
| < 0.01 | CC(=O)NCCNCCn1c(C)cn2cc(-c3cccc(-c4cccc(-c5cc6c(=O)n(CCNCCNC(C)=O)c(C)cn6c5)c4Cl)c3Cl)cc2c1=O [Compound 54, N,N′-(((((2,2′-dichloro-[1,1′-biphenyl]-3,3′-diyl)bis(3-methyl-1-oxopyrrolo[1,2-a]pyrazine-7,2(1H)-diyl))bis(ethane-2,1-diyl))bis(azanediyl))bis(ethane-2,1-diyl))diacetamide] |
| 0.01 to 0.1 | O=C1CC[C@@H](Cn2c(C3CC3)cn3cc(-c4cccc(-c5cccc(-c6cc7c(=O)n(C[C@@H]8CCC(=O)N8)c(C8CC8)cn7c6)c5Cl)c4Cl)cc3c2=O)N1 [Compound 31, 7,7′-(2,2′-dichloro-[1,1′-biphenyl]-3,3′-diyl)bis(3-cyclopropyl-2-(((S)-5-oxopyrrolidin-2-yl)methyl)pyrrolo[1,2-a]pyrazin-1(2H)-one)] |
| < 0.01 | Cc1cn2nc(-c3cccc(-c4cccc(-c5cc6c(=O)n(CCN[C@]7(C(=O)O)C[C@H](O)C7)c(C)cn6n5)c4Cl)c3Cl)cc2c(=O)n1CCN[C@]1(C(=O)O)C[C@H](O)C1 [Compound 102, (1S,1'S,3S,3'S)-1,1′-((((2,2′-dichloro-[1,1′-biphenyl]-3,3′-diyl)bis(6-methyl-4-oxopyrazolo[1,5-a]pyrazine-2,5(4H)-diyl))bis(ethane-2,1-diyl))bis(azanediyl)) bis(3-hydroxycyclobutane-1-carboxylic acid)] |
| ≥ 0.1 | O=C(O)Cn1cnn2cc(-c3cccc(-c4cccc(-c5cc6c(=O)n(CC(=O)O)cnn6c5)c4Cl)c3Cl)cc2c1=O [Compound 23, 2,2′-((2,2′-dichloro-[1,1′-biphenyl]-3,3′-diyl)bis(4-oxopyrrolo[2,1-f][1,2,4]triazine-6,3(4H)-diyl))diacetic acid] |
| ≥ 0.1 | O=C(O)CCC(O)Cn1cnn2cc(-c3cccc(-c4cccc(-c5cc6c(=O)n(CC(O)CCC(=O)O)cnn6c5)c4Cl)c3Cl)cc2c1=O (stereo not drawn) [Compound 28, 5,5′-((2,2′-dichloro-[1,1′-biphenyl]-3,3′-diyl)bis(4-oxopyrrolo[2,1-f][1,2,4]triazine-6,3(4H)-diyl))bis(4-hydroxypentanoic acid)] |
| ≥ 0.1 | Cc1cn2cc(-c3cccc(-c4cccc(-c5cc6c(=O)n(CCNCC(O)CC(=O)O)c(C)cn6c5)c4Cl)c3Cl)cc2c(=O)n1CCNCC(O)CC(=O)O (stereo not drawn) [Compound 56, 4,4′-((((2,2′-dichloro-[1,1′-biphenyl]-3,3′-diyl)bis(3-methyl-1-oxopyrrolo[1,2-a]pyrazine-7,2(1H)-diyl))bis(ethane-2,1-diyl))bis(azanediyl))bis(3-hydroxybutanoic acid)] |
| 0.01 to 0.1 | Cc1cn2nc(-c3cccc(-c4cccc(-c5cc6c(=O)n(C[C@H]7CCCN7)c(C)cn6n5)c4Cl)c3Cl)cc2c(=O)n1C[C@H]1CCCN1 [Compound 37, 2,2′-(2,2′-dichloro-[1,1′-biphenyl]-3,3′-diyl)bis(6-methyl-5-(((R)-pyrrolidin-2-yl)methyl)pyrazolo[1,5-a]pyrazin-4(5H)-one) dihydrochloride] |
| 0.01 to 0.1 | Cc1cn2nc(-c3cccc(-c4cccc(-c5cc6c(=O)n(CCN7CCCC7CCO)c(C)cn6n5)c4Cl)c3Cl)cc2c(=O)n1CCN1CCCC1CCO (stereo not drawn) [Compound 93, 2,2′-(2,2′-dichloro-[1,1′-biphenyl]-3,3′-diyl)bis(5-(2-(2-(2-hydroxyethyl)pyrrolidin-1-yl)ethyl)-6-methylpyrazolo[1,5-a]pyrazin-4(5H)-one)] |
| ≥ 0.1 | O=C1NCCN1CCn1cnn2cc(-c3cccc(-c4cccc(-c5cc6c(=O)n(CCN7CCNC7=O)cnn6c5)c4Cl)c3Cl)cc2c1=O [Compound 19, 6,6′-(2,2′-dichloro-[1,1′-biphenyl]-3,3′-diyl)bis(3-(2-(2-oxoimidazolidin-1-yl)ethyl)pyrrolo[2,1-f][1,2,4]triazin-4(3H)-one)] |
| ≥ 0.1 | Cc1cn2nc(-c3cccc(-c4cccc(-c5cc6c(=O)n(CCN7C[C@@H](O)CC[C@H]7C(=O)O)c(C)cn6n5)c4Cl)c3Cl)cc2c(=O)n1CCN1C[C@@H](O)CC[C@H]1C(=O)O [Compound 84, (2S,2'S,5S,5'S)-1,1′-(((2,2′-dichloro-[1,1′-biphenyl]-3,3′-diyl)bis(6-methyl-4-oxopyrazolo[1,5-a]pyrazine-2,5(4H)-diyl))bis(ethane-2,1-diyl))bis(5-hydroxypiperidine-2-carboxylic acid)] |
| ≥ 0.1 | O=C1CC[C@@H](CN2CCn3cc(-c4cccc(-c5cccc(-c6cc7n(c6)CCN(C[C@@H]6CCC(=O)N6)C7=O)c5Cl)c4Cl)cc3C2=O)N1 [Compound 9, 7,7′-(2,2′-dichloro-[1,1′-biphenyl]-3,3′-diyl)bis(2-(((S)-5-oxopyrrolidin-2-yl)methyl)-3,4-dihydropyrrolo[1,2-a]pyrazin-1(2H)-one)] |
| ≥ 0.1 | O=C1CC[C@@H](Cn2ccn3c(F)c(-c4cccc(-c5cccc(-c6nc7c(=O)n(C[C@@H]8CCC(=O)N8)ccn7c6F)c5Cl)c4Cl)nc3c2=O)N1 [Compound 13, 2,2′-(2,2′-dichloro-[1,1′-biphenyl]-3,3′-diyl)bis(3-fluoro-7-(((S)-5-oxopyrrolidin-2-yl)methyl)imidazo[1,2-a]pyrazin-8(7H)-one)] |
| ≥ 0.1 | Cc1cn2cc(-c3cccc(-c4cccc(-c5cc6c(=O)n(CCNCC7CCCN7)c(C)cn6c5)c4Cl)c3Cl)cc2c(=O)n1CCNCC1CCCN1 (stereo not drawn) [Compound 55, 7,7′-(2,2′-dichloro-[1,1′-biphenyl]-3,3′-diyl)bis(3-methyl-2-(2-((pyrrolidin-2-ylmethyl)amino)ethyl)pyrrolo[1,2-a]pyrazin-1(2H)-one)] |
| 0.01 to 0.1 | O=C1CC[C@@H](Cn2c(C3CC3)nn3cc(-c4cccc(-c5cccc(-c6cc7c(=O)n(C[C@@H]8CCC(=O)N8)c(C8CC8)nn7c6)c5Cl)c4Cl)cc3c2=O)N1 [Compound 34, 6,6′-(2,2′-dichloro-[1,1′-biphenyl]-3,3′-diyl)bis(2-cyclopropyl-3-(((S)-5-oxopyrrolidin-2-yl)methyl)pyrrolo[2,1-f][1,2,4]triazin-4(3H)-one)] |
| 0.01 to 0.1 | Cc1cn2nc(-c3cccc(-c4cccc(-c5cc6c(=O)n(CCN[C@H](C(=O)O)[C@@H](C)O)c(C)cn6n5)c4Cl)c3Cl)cc2c(=O)n1CCN[C@H](C(=O)O)[C@@H](C)O [Compound 60, (2S,2'S,3R,3′R)-2,2′-((((2,2′-dichloro-[1,1′-biphenyl]-3,3′-diyl)bis(6-methyl-4-oxopyrazolo[1,5-a]pyrazine-2,5(4H)-diyl))bis(ethane-2,1-diyl))bis(azanediyl)) bis(3-hydroxybutanoic acid)] |
| < 0.01 | Cn1c(CCN[C@@H](CO)C(=O)O)cn2nc(-c3cccc(-c4cccc(-c5cc6c(=O)n(C)c(CCN[C@@H](CO)C(=O)O)cn6n5)c4Cl)c3Cl)cc2c1=O [Compound 71, (2S,2'S)-2,2′-((((2,2′-dichloro-[1,1′-biphenyl]-3,3′-diyl)bis(5-methyl-4-oxo-4,5-dihydropyrazolo[1,5-a]pyrazine-2,6-diyl))bis(ethane-2,1-diyl))bis(azanediyl))bis(3-hydroxypropanoic acid)] |
| 0.01 to 0.1 | O=c1[nH]c(C[C@@H]2CCCN2)nn2cc(-c3cccc(-c4cccc(-c5cc6c(=O)[nH]c(C[C@@H]7CCCN7)nn6c5)c4Cl)c3Cl)cc12 [Compound 75, 6′-(2,2′-dichloro-[1,1′-biphenyl]-3,3′-diyl)bis(2-(((S)-pyrrolidin-2-yl)methyl)pyrrolo[2,1-f][1,2,4]triazin-4(3H)-one)] |
| ≥ 0.1 | Cc1cn2nc(-c3cccc(-c4cccc(-c5cc6c(=O)n(CCN[C@@H](CN(C)C)C(=O)O)c(C)cn6n5)c4Cl)c3Cl)cc2c(=O)n1CCN[C@@H](CN(C)C)C(=O)O [Compound 69, (2S,2'S)-2,2′-((((2,2′-dichloro-[1,1′-biphenyl]-3,3′-diyl)bis(6-methyl-4-oxopyrazolo[1,5-a]pyrazine-2,5(4H)-diyl))bis(ethane-2,1-diyl))bis(azanediyl))bis(3-(dimethylamino)propanoic acid)] |
| 0.01 to 0.1 | O=C1CC[C@@H](Cn2ccn3cc(-c4cccc(-c5cccc(-c6cc7c(=O)n(C[C@@H]8CCC(=O)N8)ccn7c6)c5Cl)c4Cl)cc3c2=O)N1 [Compound 5, 7,7′-(2,2′-dichloro-[1,1′-biphenyl]-3,3′-diyl)bis(2-(((S)-5-oxopyrrolidin-2-yl)methyl)pyrrolo[1,2-a]pyrazin-1(2H)-one)] |

| Compound | IC50 [µM] |
| --- | --- |
| (2S,2'S,4R,4′R)-1,1′-(((2,2′-dichloro-[1,1′-biphenyl]-3,3′-diyl)bis(3-methyl-1-oxopyrrolo[1,2-a]pyrazine-7,2(1H)-diyl))bis(ethane-2,1-diyl))bis(4-hydroxypyrrolidine-2-carboxylic acid) [Compound 59] | ≥ 0.1 |
